Data from ChEMBL document CHEMBL1126733, “Orally active, nonpeptide vasopressin V1 antagonists. A novel series of 1-(1-substituted 4-piperidyl)-3,4-dihdyro-2(1H)-quinolinone” (J Med Chem, 1993).
Calls of active or inactive are those of the source. The calls are words filed in the database; no cut-off is given here.

Assays:
Vasopressin V2 receptor = Vasopressin V2 receptor (Rattus norvegicus, UniProt Q00788); assay: Ability to displace [3H]- Arginine Vasopressin (AVP) from its specific binding sites in rat […]
Sequence of Vasopressin V2 receptor (Q00788 whole entry): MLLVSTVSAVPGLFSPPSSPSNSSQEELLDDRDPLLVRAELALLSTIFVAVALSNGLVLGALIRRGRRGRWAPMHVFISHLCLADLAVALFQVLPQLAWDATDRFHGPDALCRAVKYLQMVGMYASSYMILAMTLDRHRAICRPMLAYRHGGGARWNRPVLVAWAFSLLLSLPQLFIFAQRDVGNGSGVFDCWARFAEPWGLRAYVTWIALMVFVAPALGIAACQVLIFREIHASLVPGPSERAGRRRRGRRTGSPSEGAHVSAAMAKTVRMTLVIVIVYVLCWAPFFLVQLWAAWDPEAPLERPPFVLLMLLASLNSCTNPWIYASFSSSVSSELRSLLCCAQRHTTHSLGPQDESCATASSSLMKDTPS

Vasopressin V1a receptor = Vasopressin V1a receptor (Rattus norvegicus, UniProt P30560); assay: Ability to displace [3H]- Arginine Vasopressin (AVP) from its specific binding sites in rat liver (V1 receptor)
Sequence of Vasopressin V1a receptor (P30560 whole entry): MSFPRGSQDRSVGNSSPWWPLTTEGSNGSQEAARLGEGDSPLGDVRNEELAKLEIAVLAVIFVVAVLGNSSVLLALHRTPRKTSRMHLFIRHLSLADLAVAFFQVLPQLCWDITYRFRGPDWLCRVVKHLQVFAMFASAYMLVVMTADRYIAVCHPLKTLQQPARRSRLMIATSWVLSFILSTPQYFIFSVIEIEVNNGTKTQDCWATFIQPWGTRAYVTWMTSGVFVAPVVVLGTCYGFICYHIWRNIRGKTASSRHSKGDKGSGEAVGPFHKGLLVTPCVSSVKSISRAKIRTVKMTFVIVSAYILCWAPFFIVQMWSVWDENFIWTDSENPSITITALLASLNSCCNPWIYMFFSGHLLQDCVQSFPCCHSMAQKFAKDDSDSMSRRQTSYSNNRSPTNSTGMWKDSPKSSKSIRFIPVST

[1] = target: Vasopressin V1a receptor (Rattus norvegicus) (UniProt P30560); assay: Inhibition expressed as percent change in diastolic blood pressure increased by AVP (30 milliunits / kg, iv) before and after oral administration at 76 uM/kg (n=4); format: functional, organism-based; settings: Artery
Sequence of Vasopressin V1a receptor (Rattus norvegicus) (P30560 whole entry, looked up): as the sequence (P30560 whole entry) above

[2] = target: Vasopressin V1a receptor (Rattus norvegicus) (UniProt P30560); assay: Inhibition dose for AVP (30 milliunits/kg, iv) induced vasoconstriction when orally administarted; format: functional, organism-based
[3] = target: Vasopressin V1a receptor (Rattus norvegicus) (UniProt P30560); assay: Inhibition expressed as percent change in diastolic blood pressure increased by AVP (30 milliunits / kg, iv) before and after oral administration at 21 uM/kg; format: functional, organism-based; settings: Artery
[4] = target: Vasopressin V1a receptor (Rattus norvegicus) (UniProt P30560); assay: Inhibition expressed as percent change in diastolic blood pressure increased by AVP (30 milliunits / kg, iv) before and after oral administration at 270 uM/kg; format: functional, organism-based; settings: Artery
[5] = target: Vasopressin V1a receptor (Rattus norvegicus) (UniProt P30560); assay: Inhibition expressed as percent change in diastolic blood pressure increased by AVP (30 milliunits / kg, iv) before and after oral administration at 20 uM/kg); No effect; format: functional, organism-based; settings: Artery
[6] = target: Vasopressin V1a receptor (Rattus norvegicus) (UniProt P30560); assay: Inhibition expressed as percent change in diastolic blood pressure increased by AVP (30 milliunits / kg, iv) before and after oral administration at 79 uM/kg (n=7); format: functional, organism-based; settings: Artery
[7] = target: Vasopressin V1a receptor (Rattus norvegicus) (UniProt P30560); settings: Artery; 22 uM
Description: Inhibition expressed as percent change in diastolic blood pressure increased by AVP (30 milliunits / kg, iv) before and after oral administration at 22 uM/kg

[8] = target: Vasopressin V1a receptor (Rattus norvegicus) (UniProt P30560); settings: Artery; 290 uM
Description: Inhibition expressed as percent change in diastolic blood pressure increased by AVP (30 milliunits / kg, iv) before and after oral administration at 290 uM/kg

[9] = target: Vasopressin V1a receptor (Rattus norvegicus) (UniProt P30560); assay: Inhibition expressed as percent change in diastolic blood pressure increased by AVP (30 milliunits / kg, iv) before and after oral administration at 23 uM/kg; format: functional, organism-based; settings: Artery

| Compound | IC50 (Vasopressin V2 receptor) | IC50 (Vasopressin V1a receptor) | also measured |
| --- | --- | --- | --- |
| O=C(c1ccc(F)cc1)N1CCC(N2C(=O)CCc3ccccc32)CC1 | > 100 µM | 1.4 µM | – |
| O=C(c1cnccn1)N1CCC(N2C(=O)CCc3ccccc32)CC1 | > 100 µM | 26 µM | – |
| COc1ccc(C(=O)N2CCC(N3C(=O)CCc4ccccc43)CC2)cc1 | > 100 µM | 0.62 µM | – |
| CC(=O)N(C)CCCOc1ccc(C(=O)N2CCC(N3C(=O)CCc4ccccc43)CC2)cc1 | > 100 µM | 0.54 µM | – |
| Nc1ccc(C(=O)N2CCC(N3C(=O)CCc4ccccc43)CC2)cc1 | > 100 µM | 3.7 µM | – |
| CC(=O)Oc1ccccc1C(=O)N1CCC(N2C(=O)CCc3ccccc32)CC1 | > 100 µM | 1.4 µM | – |
| COC(=O)NCCCOc1ccc(C(=O)N2CCC(N3C(=O)CCc4ccccc43)CC2)cc1 | > 100 µM | 0.36 µM | – |
| O=C(c1cccc([N+](=O)[O-])c1)N1CCC(N2C(=O)CCc3ccccc32)CC1 | > 100 µM | 3.1 µM | – |
| O=C(c1cccs1)N1CCC(N2C(=O)CCc3ccccc32)CC1 | > 100 µM | 2.5 µM | – |
| O=C(c1ccncc1)N1CCC(N2C(=O)CCc3ccccc32)CC1 | > 100 µM | 37 µM | – |
| CCCOc1ccc(C(=O)N2CCC(N3C(=O)CCc4ccccc43)CC2)cc1 | > 100 µM | 0.32 µM | inhibition [1]: 65% |
| O=C(c1ccc(O)cc1)N1CCC(N2C(=O)CCc3ccccc32)CC1 | > 100 µM | 1.3 µM | – |
| O=C(c1ccc(Br)cc1)N1CCC(N2C(=O)CCc3ccccc32)CC1 | 73 µM | 0.5 µM | – |
| CC(=O)Oc1ccc(C(=O)N2CCC(N3C(=O)CCc4ccccc43)CC2)cc1 | > 100 µM | – | – |
| O=C(Cc1ccccc1)N1CCC(N2C(=O)CCc3ccccc32)CC1 | > 100 µM | 12 µM | – |
| O=C(c1ccc(Cl)cc1)N1CCC(N2C(=O)CCc3ccccc32)CC1 | 78 µM | 1.2 µM | – |
| CN(C)c1ccc(C(=O)N2CCC(N3C(=O)CCc4ccccc43)CC2)cc1 | > 100 µM | 0.47 µM | – |
| NCCCCCCOc1ccc(C(=O)N2CCC(N3C(=O)CCc4ccccc43)CC2)cc1 | > 100 µM | 0.1 µM | – |
| CC(=O)NCCCCCOc1ccc(C(=O)N2CCC(N3C(=O)CCc4ccccc43)CC2)cc1 | > 100 µM | 0.16 µM | ID50 [2]: 4.7 µmol/kg; inhibition [3]: 81% |

| Compound | IC50 (Vasopressin V2 receptor) | IC50 (Vasopressin V1a receptor) | also measured |
| --- | --- | --- | --- |
| Cc1ccccc1C(=O)N1CCC(N2C(=O)CCc3ccccc32)CC1 | > 100 µM | 8.4 µM | – |
| CCCCc1ccc(C(=O)N2CCC(N3C(=O)CCc4ccccc43)CC2)cc1 | 83 µM | 0.35 µM | – |
| O=C(O)c1ccc(C(=O)N2CCC(N3C(=O)CCc4ccccc43)CC2)cc1 | > 100 µM | > 100 µM | – |
| NC(=O)c1ccc(C(=O)N2CCC(N3C(=O)CCc4ccccc43)CC2)cc1 | > 100 µM | 11 µM | – |
| CCCc1ccc(C(=O)N2CCC(N3C(=O)CCc4ccccc43)CC2)cc1 | > 100 µM | 0.33 µM | inhibition [4]: 86% |
| O=C1CCc2ccccc2N1C1CCN(Cc2ccccc2)CC1 | > 100 µM | > 100 µM | – |
| O=C(c1ccc([N+](=O)[O-])cc1)N1CCC(N2C(=O)CCc3ccccc32)CC1 | > 100 µM | 2 µM | – |
| NCCCCCCCCOc1ccc(C(=O)N2CCC(N3C(=O)CCc4ccccc43)CC2)cc1 | 44 µM | 0.068 µM | inhibition [5]: inactive |
| CCCCCCOc1ccc(C(=O)N2CCC(N3C(=O)CCc4ccccc43)CC2)cc1 | 54 µM | 1.5 µM | – |
| COC(=O)c1ccc(C(=O)N2CCC(N3C(=O)CCc4ccccc43)CC2)cc1 | > 100 µM | 3.5 µM | – |
| CN1CCC(N2C(=O)CCc3ccccc32)CC1 | > 50 µM | > 100 µM | – |
| O=C(c1cccc(O)c1)N1CCC(N2C(=O)CCc3ccccc32)CC1 | > 100 µM | 6.3 µM | – |
| CC(=O)NCCCCCCCCOc1ccc(C(=O)N2CCC(N3C(=O)CCc4ccccc43)CC2)cc1 | > 100 µM | 0.3 µM | – |
| NCCCCOc1ccc(C(=O)N2CCC(N3C(=O)CCc4ccccc43)CC2)cc1 | > 100 µM | 0.33 µM | – |
| O=C(c1ccccc1O)N1CCC(N2C(=O)CCc3ccccc32)CC1 | > 100 µM | 1.5 µM | – |
| O=C(c1ccccc1Cl)N1CCC(N2C(=O)CCc3ccccc32)CC1 | > 100 µM | 9.9 µM | – |
| Cc1cccc(C(=O)N2CCC(N3C(=O)CCc4ccccc43)CC2)c1 | > 100 µM | 1.3 µM | – |
| O=C(c1ccccc1)N1CCC(N2C(=O)CCc3ccccc32)CC1 | > 50 µM | 1.9 µM | – |
| CCOc1ccc(C(=O)N2CCC(N3C(=O)CCc4ccccc43)CC2)cc1 | > 100 µM | 0.21 µM | inhibition [6]: 75% |

| Compound | IC50 (Vasopressin V2 receptor) | IC50 (Vasopressin V1a receptor) | also measured |
| --- | --- | --- | --- |
| CC(=O)Oc1cccc(C(=O)N2CCC(N3C(=O)CCc4ccccc43)CC2)c1 | > 100 µM | 3.7 µM | – |
| O=C(c1ccccc1[N+](=O)[O-])N1CCC(N2C(=O)CCc3ccccc32)CC1 | > 100 µM | 8.4 µM | – |
| CC(=O)Nc1ccc(C(=O)N2CCC(N3C(=O)CCc4ccccc43)CC2)cc1 | > 100 µM | 2.8 µM | – |
| CC(=O)NCCCOc1ccc(C(=O)N2CCC(N3C(=O)CCc4ccccc43)CC2)cc1 | > 100 µM | 0.44 µM | ID50 [2]: 4.4 µmol/kg; inhibition [7]: 93% |
| CCc1ccc(C(=O)N2CCC(N3C(=O)CCc4ccccc43)CC2)cc1 | 80 µM | 0.5 µM | – |
| O=C(c1cccc(Cl)c1)N1CCC(N2C(=O)CCc3ccccc32)CC1 | > 100 µM | 4.4 µM | – |
| O=CNCCCCOc1ccc(C(=O)N2CCC(N3C(=O)CCc4ccccc43)CC2)cc1 | > 100 µM | 0.25 µM | – |
| NCCOc1ccc(C(=O)N2CCC(N3C(=O)CCc4ccccc43)CC2)cc1 | > 100 µM | 2 µM | – |
| N#Cc1ccc(C(=O)N2CCC(N3C(=O)CCc4ccccc43)CC2)cc1 | > 100 µM | 3.1 µM | – |
| Cc1ccc(C(=O)N2CCC(N3C(=O)CCc4ccccc43)CC2)cc1 | > 100 µM | 0.5 µM | inhibition [8]: 23% |
| NCCCOc1ccc(C(=O)N2CCC(N3C(=O)CCc4ccccc43)CC2)cc1 | > 100 µM | 0.75 µM | – |
| NCCCCCOc1ccc(C(=O)N2CCC(N3C(=O)CCc4ccccc43)CC2)cc1 | > 100 µM | 0.28 µM | – |
| CCCCOc1ccc(C(=O)N2CCC(N3C(=O)CCc4ccccc43)CC2)cc1 | > 100 µM | 0.42 µM | – |
| CC(=O)NCCCCOc1ccc(C(=O)N2CCC(N3C(=O)CCc4ccccc43)CC2)cc1 | > 100 µM | 0.21 µM | ID50 [2]: 5.3 µmol/kg; inhibition [3]: 78% |
| CCC(=O)NCCCOc1ccc(C(=O)N2CCC(N3C(=O)CCc4ccccc43)CC2)cc1 | > 100 µM | 0.78 µM | – |
| CC(=O)NCCOc1ccc(C(=O)N2CCC(N3C(=O)CCc4ccccc43)CC2)cc1 | > 100 µM | 0.42 µM | ID50 [2]: 7.7 µmol/kg; inhibition [9]: 80% |
| CC(=O)NCCCCCCOc1ccc(C(=O)N2CCC(N3C(=O)CCc4ccccc43)CC2)cc1 | > 100 µM | 0.12 µM | – |
| O=C(c1ccco1)N1CCC(N2C(=O)CCc3ccccc32)CC1 | > 100 µM | 11 µM | – |
| O=CNCCCOc1ccc(C(=O)N2CCC(N3C(=O)CCc4ccccc43)CC2)cc1 | > 100 µM | 0.24 µM | – |
